Reference: paper PMC4875834 (The Biochemical journal, 2016)

Target: T1, DC-SIGN (Homo sapiens, UniProt Q9NNX6)
T1 sequence (Q9NNX6 62-404): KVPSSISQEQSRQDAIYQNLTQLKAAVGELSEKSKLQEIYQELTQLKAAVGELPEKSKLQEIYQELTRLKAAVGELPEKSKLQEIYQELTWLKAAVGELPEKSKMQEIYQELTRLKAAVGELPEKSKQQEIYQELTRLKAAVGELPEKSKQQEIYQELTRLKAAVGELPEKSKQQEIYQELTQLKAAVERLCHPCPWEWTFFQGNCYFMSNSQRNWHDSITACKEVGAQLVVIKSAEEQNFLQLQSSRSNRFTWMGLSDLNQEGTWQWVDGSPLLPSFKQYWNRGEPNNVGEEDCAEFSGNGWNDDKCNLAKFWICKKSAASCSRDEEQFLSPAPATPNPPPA
Assay: free-glycan inhibition of DC-SIGN binding to HMG microarrays

IC50: ~1000 µM
Compound: C[C@@H]1O[C@@H](O[C@H]2[C@H](O[C@H]3[C@H](O)[C@@H](O)C(O)O[C@@H]3CO)O[C@H](CO)[C@H](O)[C@@H]2O)[C@@H](O)[C@H](O)[C@@H]1O (stereo partly shown) [2′-FL, 2′-fucosyllactose]
